Measured values reported in paper PMC8294059, “Identification and Immune Assessment of T Cell Epitopes in Five Plasmodium falciparum Blood Stage Antigens to Facilitate Vaccine Candidate Selection and Optimization” (Frontiers in Immunology, 2021).
Like-named read-outs stand apart in the source and are kept apart here. Where a SMILES comes first, the peptide text is derived from it.

How the values were obtained:
HLA-B*0702 = HLA-B*0702 (Homo sapiens, UniProt P01889); assay: In vitro class I HLA binding assay (fluorescence polarization competition); conditions: allele B*0702
Protocol: A cell-free class I HLA binding assay that allows for in vitro quantification of peptide-HLA binding affinity in a competition format was used. In this assay, a fluorescently labeled, high binding, control peptide is loaded onto 384-well ½-area plates along with unlabeled experimental peptides. To remove endogenous peptides and render the HLA A and B molecules receptive to binding, HLA is heated at 53°C for 15 minutes and immediately added to the assay. The mixture is then allowed to stand for three days. […] Binding of experimental peptides is expressed as the percent inhibition of the labeled control peptide (experimental fluorescence / control fluorescence, multiplied by 100). The percent inhibition values for each experimental peptide (across a range of molar concentrations) are used to calculate the concentration which inhibits 50% of the labeled control peptide’s specific binding. This value is referred to as the peptide’s IC50.

HLA-DRB1*0101 = molecular target: T1, HLA-DRB1*0101 (Homo sapiens, UniProt P01903+P01911, A100R/D57E/F55L/F60I/F76Y/I96L/L162R/M171V/P40L/Q125E/R42F/V115G/Y59C); assay: biochemical; type: binding; conditions: binding inhibition assay; NB = non-binder (no dose-dependent inhibition); read-out: DRB1*0101 IC50
T1 construct: purchased
How it was run: (§1)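 HLA-peptide complexes are captured with anti-HLA-DR antibody, and bound reference is quantified by europium-probe time-resolved fluorescence.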

HLA-DRB1*1101 = HLA-DRB1*1101 (Homo sapiens, UniProt P01903+P01911, A100R/A169T/A87E/I96F/K41T/L162R/M171V/P40S/Q125H/Q178H/Q39Y/Q99D/R42S/S66Y/T262R/V115G/W38E); assay: biochemical; type: binding; conditions: binding inhibition assay; NB = non-binder (no dose-dependent inhibition); read-out: DRB1*1101 IC50
How it was run: as §1

HLA-DRB1*1301 = HLA-DRB1*1301 (Homo sapiens, UniProt P01903+P01911, A100E/A169T/K41T/L162R/M171V/P40S/Q125H/Q178H/Q39Y/Q99D/R42S/S66N/T262R/W38E/Y61H); assay: biochemical; type: binding; conditions: binding inhibition assay; NB = non-binder (no dose-dependent inhibition); read-out: DRB1*1301 IC50
How it was run: as §1

HLA-DRB1*0801 = HLA-DRB1*0801 (Homo sapiens, UniProt P01903+P01911, A100R/A103L/A169T/D86S/F76Y/H45Y/I96F/K41T/L162R/M171V/P40S/Q125H/Q178H/Q39Y/Q99D/R218S/R42G/S66Y/V115G/W38E); assay: biochemical; type: binding; conditions: binding inhibition assay; NB = non-binder (no dose-dependent inhibition); read-out: DRB1*0801 IC50
How it was run: as §1

HLA-DRB1*0701 = HLA-DRB1*0701 (Homo sapiens, UniProt P01903+P01911, A100R/A102G/A103Q/D57E/D86V/E43K/F76Y/K127E/L162R/M171V/P40G/Q125H/Q99D/R33Q/R42Y/R54Q/S133A/S66F/T210M/V115G/Y107V/Y59L/Y89S); assay: biochemical; type: binding; conditions: binding inhibition assay; NB = non-binder (no dose-dependent inhibition); read-out: DRB1*0701 IC50
How it was run: as §1

HLA-DRB1*0401 = molecular target: T2, HLA-DRB1*0401 (Homo sapiens, UniProt P01903+P01911, A100K/A169T/F76Y/I96L/K127E/L162R/M171V/N62H/P40V/Q125Y/R42H/S133A/S149N/S66Y/V115G/V209L/W38E); assay: biochemical; type: binding; conditions: binding inhibition assay; NB = non-binder (no dose-dependent inhibition); read-out: DRB1*0401 IC50
T2 construct: purchased
How it was run: as §1

HLA-DRB1*1501 = molecular target: T3, HLA-DRB1*1501 (Homo sapiens, UniProt P01903+P01911); assay: biochemical; type: binding; conditions: binding inhibition assay; NB = non-binder (no dose-dependent inhibition); read-out: DRB1*1501 IC50
T3 construct: purchased
How it was run: as §1

[1] = fluorescence polarization competition, read-out: IC50 (nM), in vitro HLA binding affinity
[2] = cell-free competition, fluorescence polarization at 72 hours, Non-binder = no dose-dependent inhibition, read-out: IC50

Compound	IC50 (HLA-B*0702; [1]) [nM]	IC50 (HLA-DRB1*0101) [µM]	IC50 (HLA-DRB1*1101) [µM]	IC50 (HLA-DRB1*1301) [µM]	IC50 (HLA-DRB1*0801) [µM]	IC50 (HLA-DRB1*0701) [µM]	IC50 (HLA-DRB1*0401) [µM]	IC50 (HLA-DRB1*1501) [µM]	other results
CC(C)C[C@H](NC(=O)[C@H](CC(N)=O)NC(=O)[C@H](CCCCN)NC(=O)[C@H](CCCNC(=N)N)NC(=O)[C@@H]1CCCN1C(=O)[C@@H](N)CS)C(=O)N[C@@H](CCC(N)=O)C(=O)N[C@@H](CC(N)=O)C(=O)N[C@@H](C)C(=O)O [AMA1_302] (H-CPRKNLQNA-OH)	484	–	–	–	–	–	–	–	–
CC[C@H](C)[C@H](NC(=O)[C@@H]1CCCN1C(=O)[C@@H](N)Cc1c[nH]cn1)C(=O)N[C@@H](CCC(=O)O)C(=O)N[C@H](C(=O)N[C@@H](CCC(=O)O)C(=O)N[C@@H](CC(N)=O)C(=O)N[C@@H](CC(N)=O)C(=O)N[C@@H](Cc1ccccc1)C(=O)O)C(C)C [AMA1_433] (H-HPIEVENNF-OH)	310000	–	–	–	–	–	–	–	–
CC(C)C[C@H](NC(=O)[C@@H](NC(=O)[C@@H]1CCCN1C(=O)[C@@H](NC(=O)[C@@H](NC(=O)[C@H](Cc1c[nH]cn1)NC(=O)[C@H](CO)NC(=O)[C@H](C)NC(=O)[C@@H](N)CCCNC(=N)N)[C@@H](C)O)[C@@H](C)O)C(C)C)C(=O)O [AMA1_608] (H-RASHTTPVL-OH)	258	–	–	–	–	–	–	–	–
CC[C@H](C)[C@H](N)C(=O)N1CCC[C@H]1C(=O)N[C@@H](Cc1ccccc1)C(=O)N[C@@H](Cc1c[nH]cn1)C(=O)N[C@@H](CCCCN)C(=O)N[C@@H](CCCCN)C(=O)N[C@@H](Cc1ccccc1)C(=O)N[C@H](C(=O)N[C@@H](CO)C(=O)N[C@@H](Cc1ccccc1)C(=O)O)[C@@H](C)CC [CYRPA_003] (H-IPFHKKFISF-OH)	21900	–	–	–	–	–	–	–	–
CC[C@H](C)[C@H](NC(=O)[C@H](Cc1ccc(O)cc1)NC(=O)[C@@H]1CCCN1C(=O)[C@@H](N)CCCNC(=N)N)C(=O)N[C@@H](CO)C(=O)N[C@@H](CCCCN)C(=O)N[C@@H](CC(N)=O)C(=O)N[C@@H](CC(=O)O)C(=O)N[C@@H](CC(C)C)C(=O)O [CYRPA_229] (H-RPYISKNDL-OH)	244	–	–	–	–	–	–	–	–
C[C@H](NC(=O)[C@@H](NC(=O)[C@@H](NC(=O)[C@H](CC(N)=O)NC(=O)CNC(=O)[C@H](Cc1ccc(O)cc1)NC(=O)[C@H](CCCCN)NC(=O)[C@H](CCC(=O)O)NC(=O)[C@@H]1CCCN1C(=O)[C@@H](N)CCCCN)[C@@H](C)O)[C@@H](C)O)C(=O)O [CYRPA_316] (H-KPEKYGNTTA-OH)	836000	–	–	–	–	–	–	–	–
CC[C@H](C)[C@H](NC(=O)[C@@H](NC(=O)[C@H](C)NC(=O)[C@H](CCCCN)NC(=O)[C@@H]1CCCN1C(=O)[C@@H](N)CCSC)C(C)C)C(=O)NCC(=O)N[C@@H](CO)C(=O)N[C@@H](CO)C(=O)N1CCC[C@H]1C(=O)O [EBA175_0971] (H-MPKAVIGSSP-OH)	–	–	–	–	–	–	–	–	IC50 (HLA-B*0702; [2]): 293000 nM
CC[C@H](C)[C@H](NC(=O)[C@H](CC(N)=O)NC(=O)[C@H](CC(=O)O)NC(=O)[C@H](CC(N)=O)NC(=O)[C@@H]1CCCN1C(=O)[C@@H](N)CO)C(=O)N[C@@H](CC(N)=O)C(=O)N[C@H](C(=O)N[C@H](C(=O)O)[C@@H](C)O)C(C)C [EBA175_0979] (H-SPNDNINVT-OH)	–	–	–	–	–	–	–	–	IC50 (HLA-B*0702; [2]): 36100 nM
CC(C)C[C@H](NC(=O)[C@@H](NC(=O)[C@H](CC(N)=O)NC(=O)[C@H](CO)NC(=O)[C@H](CC(N)=O)NC(=O)[C@H](CCCNC(=N)N)NC(=O)[C@H](CC(=O)O)NC(=O)[C@H](CCC(=O)O)NC(=O)[C@@H]1CCCN1C(=O)[C@@H](N)CC(N)=O)[C@@H](C)O)C(=O)O [EBA175_1224] (H-NPEDRNSNTL-OH)	–	–	–	–	–	–	–	–	IC50 (HLA-B*0702; [2]): 2700 nM
CC(=O)N[C@H](C(=O)N[C@@H](CO)C(=O)N[C@@H](CS)C(=O)N[C@@H](Cc1ccc(O)cc1)C(=O)N[C@@H](CCCNC(=N)N)C(=O)N[C@H](C(=O)N[C@@H](CO)C(=O)N[C@@H](Cc1ccccc1)C(=O)N[C@@H](CC(N)=O)C(=O)N[C@@H](CC(C)C)C(=O)N[C@@H](CC(N)=O)C(=O)N[C@@H](CCCCN)C(=O)N[C@@H](CC(C)C)C(=O)N[C@@H](CCCCN)C(=O)N[C@@H](Cc1ccc(O)cc1)C(=O)N[C@H](C(=O)N[C@H](C(=O)N[C@@H](CCC(=O)O)C(=O)N[C@@H](CO)C(N)=O)[C@@H](C)O)C(C)C)C(C)C)C(C)C [RIPR_006] (Ac-VSCYRVSFNLNKLKYVTES-NH2)	–	0.446	9.32	11.5	11.3	0.952	8.78	6.96	–
CC[C@H](C)[C@H](NC(=O)[C@H](CC(N)=O)NC(=O)[C@H](CCC(N)=O)NC(=O)[C@H](CC(N)=O)NC(=O)[C@H](CC(N)=O)NC(=O)[C@H](Cc1ccccc1)NC(=O)[C@@H](NC(=O)[C@H](CS)NC(=O)[C@H](CC(C)C)NC(=O)[C@H](Cc1ccc(O)cc1)NC(=O)[C@H](CC(=O)O)NC(=O)[C@@H](N)Cc1ccc(O)cc1)C(C)C)C(=O)N[C@H](C(=O)N[C@@H](CO)C(=O)N[C@@H](CC(=O)O)C(=O)N[C@@H](CCCCN)C(=O)N[C@@H](CC(N)=O)C(N)=O)[C@@H](C)O [RIPR_007] (H-YDYLCVFNNQNITSDKN-NH2)	–	2.78	8.65	9.26	99	3.05	4.6	0.165	–
CC[C@H](C)[C@H](NC(=O)[C@H](CCC(=O)O)NC(=O)[C@@H](NC(=O)[C@H](CCCCN)NC(=O)[C@H](CCCCN)NC(C)=O)C(C)C)C(=O)N[C@@H](Cc1ccccc1)C(=O)N[C@@H](CCCNC(=N)N)C(=O)N[C@@H](CO)C(=O)N[C@@H](CCCNC(=N)N)C(=O)N[C@@H](Cc1ccccc1)C(=O)N[C@@H](CO)C(=O)N[C@@H](CO)C(=O)N[C@@H](CCCCN)C(=O)N[C@@H](CC(C)C)C(=O)N[C@@H](CCC(N)=O)C(=O)N[C@@H](CS)C(=O)N[C@@H](CCC(N)=O)C(N)=O [RIPR_011] (Ac-KKVEIFRSRFSSKLQCQ-NH2)	–	1.36	9.22	9.43	65.6	13.7	22	0.007	–
CC[C@H](C)[C@H](NC(=O)[C@H](CS)NC(=O)[C@H](CCC(=O)O)NC(=O)CNC(=O)[C@H](CCCNC(=N)N)NC(=O)[C@H](CO)NC(=O)[C@H](CO)NC(=O)[C@H](CCCNC(=N)N)NC(=O)[C@H](Cc1ccc(O)cc1)NC(=O)[C@H](Cc1ccc(O)cc1)NC(=O)[C@H](Cc1c[nH]cn1)NC(=O)[C@H](CCC(=O)O)NC(=O)[C@H](CCCCN)NC(C)=O)C(=O)N[C@@H](CC(C)C)C(=O)N[C@@H](CC(N)=O)C(=O)N[C@@H](CC(=O)O)C(N)=O [RIPR_017] (Ac-KEHYYRSSRGECILND-NH2)	–	0.025	1.38	> 100	6.44	0.489	> 100	58.2	–
CC[C@H](C)[C@H](NC(=O)[C@H](CCCCN)NC(=O)[C@H](CCCCN)NC(=O)[C@H](CCCCN)NC(=O)[C@H](CC(C)C)NC(=O)[C@H](Cc1ccc(O)cc1)NC(=O)[C@@H](NC(=O)[C@@H](NC(=O)[C@@H](NC(=O)[C@H](Cc1c[nH]cn1)NC(=O)[C@H](Cc1ccccc1)NC(=O)[C@@H](NC(=O)[C@H](CCC(=O)O)NC(=O)[C@H](CC(N)=O)NC(C)=O)[C@@H](C)CC)[C@@H](C)O)[C@@H](C)CC)[C@@H](C)CC)C(=O)NCC(=O)N[C@@H](CC(N)=O)C(=O)N[C@@H](CO)C(=O)N[C@H](C(=O)N[C@H](C(=O)N[C@@H](Cc1ccc(O)cc1)C(=O)N[C@@H](CC(=O)O)C(N)=O)[C@@H](C)CC)C(C)C [RIPR_019] (Ac-NEIFHTIIYLKKKIGNSVIYD-NH2)	–	0.346	0.066	3.49	1.35	3.86	3.03	0.898	–
